Earlier results, collected in patent US20030039701A1 (priority 2000, published 2003).
Like-named read-outs stand apart in the source and are kept apart here.

How the values were obtained:
[1] = supplementation
young female rats = details: mini-osmotic pumps
aromatase = molecular target: T1, aromatase (Homo sapiens, UniProt P11511); details: relative to chrysin, AG, ANG
T1 sequence (P11511 1-503): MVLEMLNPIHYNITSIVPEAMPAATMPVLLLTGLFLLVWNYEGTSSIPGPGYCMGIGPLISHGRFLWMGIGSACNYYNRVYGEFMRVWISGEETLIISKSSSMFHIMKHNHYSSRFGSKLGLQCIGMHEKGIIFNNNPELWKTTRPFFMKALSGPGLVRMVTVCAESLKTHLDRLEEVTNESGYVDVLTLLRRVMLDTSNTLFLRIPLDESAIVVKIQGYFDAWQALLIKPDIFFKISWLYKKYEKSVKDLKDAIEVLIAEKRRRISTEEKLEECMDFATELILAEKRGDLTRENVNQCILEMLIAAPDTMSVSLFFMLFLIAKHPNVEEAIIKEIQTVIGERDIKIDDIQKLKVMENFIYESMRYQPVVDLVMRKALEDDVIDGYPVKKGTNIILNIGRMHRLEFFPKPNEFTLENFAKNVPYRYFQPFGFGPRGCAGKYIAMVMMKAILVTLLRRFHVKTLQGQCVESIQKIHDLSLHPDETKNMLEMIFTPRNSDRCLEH

[2] = system: prostate and seminal vesicle weights
hypogonadal men = details: Caucasian group
[3] = 300 mg/wk for six weeks; TE: shoulders; ND: shoulders and chest
HIV-infected men = details: pharmacological doses
[4] = not given; remark: listed apart in the source
patients on dialysis = details: compared with placebo
androgen receptor = details: seminal vesicle

C[C@]12CC[C@H]3[C@@H](CCC4=C[C@@H](O)CC[C@@]43C)[C@@H]1CC[C@@H]2O [4-androstenediol]
urine testosterone concentration relative to 4-androstenedione [1]: 10 fold

C[C@]12CC[C@H]3[C@@H](CC=C4C[C@@H](O)CC[C@@]43C)[C@@H]1CC[C@@H]2O [5-androstenediol]
proportion of protein in the body composition (young female rats): increased the proportion of protein

COc1ccc(-c2coc3cc(O)cc(O)c3c2=O)cc1 [Biochanin A, 5,7-dihydroxy-4′-methoxyisoflavone]
aromatase inhibition (aromatase): inhibited aromatase, but to a lesser degree

C[C@]12CC[C@H](O)CC1=CC[C@@H]1[C@@H]2CC[C@]2(C)C(=O)CC[C@@H]12 [DHEA, dehydro-epiandrosterone]
plasma testosterone (50 mg dose): restored plasma testosterone to levels similar to those observed in young women | plasma testosterone (200 mg dose): slightly below the levels observed in normal men

C[C@@H]1CC2=CC(=O)CC[C@@H]2[C@H]2CC[C@]3(C)[C@@H](O)CC[C@H]3[C@@H]21 [MENT, 7α-methyl-19-nor-testosterone]
androgenic potency relative to testosterone [2]: four- to five-times more androgenic than testosterone | sexual interest and activity, spontaneous erection (hypogonadal men): significant increases | anabolic potency relative to testosterone (levator ani muscles): ten-times as potent as testosterone

CCCCCCCCCC(=O)O[C@H]1CC[C@H]2[C@@H]3CCC4=CC(=O)CC[C@@H]4[C@H]3CC[C@]12C [ND, 19-nor-testosterone decanoate]
body circumferences (of fifteen) [3]: significant increases | total weight, lean body mass, body cell mass, muscle size and strength (HIV-infected men): significant gains

CCCCCCC(=O)O[C@H]1CC[C@H]2[C@@H]3CCC4=CC(=O)CC[C@]4(C)[C@H]3CC[C@]12C [TE, testosterone enanthate]
body circumferences (of fifteen) [3]: significant increases | sexual interest and activity, spontaneous erection (hypogonadal men): significant increases

C[C@]12CC[C@H]3[C@@H](CCC4=CC(=O)CC[C@@H]43)[C@@H]1CC[C@@H]2O [nandrolone, 19-nor-testosterone]
energy expenditure (young female rats): increased energy expenditure | decrease in HDL-cholesterol ([4]; body builders): 25-27% | decrease in diastolic blood pressure ([4]; body builders): 25-27% | azoospermia (lack of sperm) ([4]; nandrolone use): azoospermia | lean body mass (patients on dialysis): increased significantly

C[C@]12CC[C@H]3[C@@H](CCC4=CC(=O)CC[C@@]43C)[C@@H]1CC[C@@H]2O [testosterone]
proportion of protein in the body composition (young female rats): increased the proportion of protein | change of affinity to the androgen receptor on conversion by 5-α-reductase (androgen receptor): increasing by seven- to eight-fold
